Measured values taken from patent US20240199542A1, “SUBSTITUTED PYRROLIDIN-2-ONES, SALTS THEREOF AND THEIR USE AS HERBICIDALLY ACTIVE SUBSTANCES” (Bayer Aktiengesellschaft, priority 2021, published 2024).

Tests used:
Format in all cases: in vivo
[1] = test system: Alopecurus myosuroides (ALOMY); assay: Herbicidal pre-emergence action; conditions: graded after ca. 3 weeks
Method in brief: (§1)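 Seeds sown in sandy loam and covered with soil; WP- or EC-formulated compounds applied to the covering soil surface as aqueous suspension/emulsion with 0.5% additive at 600 l water/ha, rates of 1280 g/ha or lower. Greenhouse growth; visual damage scored after ca. 3 weeks versus untreated controls (0–100%).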

Avena fatua (AVEFA) [2] = assay: Herbicidal pre-emergence action; conditions: graded after ca. 3 weeks
Method in brief: as §1

[3] = test system: Digitaria sanguinalis (DIGSA); assay: Herbicidal pre-emergence action; conditions: 320 g/ha, graded after ca. 3 weeks
Method in brief: as §1

[4] = test system: Alopecurus myosuroides (ALOMY); assay: Herbicidal post-emergence action; conditions: assessed after ca. 3 weeks
Method in brief: (§2)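 Seeds were sown in sandy loam and grown under controlled greenhouse conditions. At the single-leaf stage (2 to 3 weeks), green parts were sprayed with the aqueous formulated compound (0.5% additive, 600 l water/ha, 1280 or 320 g/ha). About 3 weeks later, effect was rated visually in percent against untreated plants.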

Avena fatua (AVEFA) [5] = assay: Herbicidal post-emergence action; conditions: assessed after ca. 3 weeks
Method in brief: as §2

[6] = test system: Digitaria sanguinalis (DIGSA); assay: Herbicidal post-emergence action; conditions: 320 g/ha, assessed after ca. 3 weeks
Method in brief: as §2

[7] = test system: Echinochloa crus-galli (ECHCG); assay: Herbicidal post-emergence action; conditions: assessed after ca. 3 weeks
Method in brief: as §2

[8] = test system: Lolium multiflorum (LOLMU); assay: Herbicidal post-emergence action; conditions: assessed after ca. 3 weeks
Method in brief: as §2

Brassica napus (BRSNW) [9] = assay: Pre-emergence effects on crop plants; conditions: 320 g/ha, crop plant
Source text: (§3) Seeds of mono- and dicotyledonous weed plants and crop plants were sown, in plastic or organic planting pots, in sandy loam and covered with soil. The compounds according to the invention, formulated in the form of wettable powders (WP) or as emulsifiable concentrates (EC), were applied to the surface of the covering soil as aqueous suspension or emulsion, with the addition of 0.5% of an additive, at an application rate of 600 1 of water/ha (converted).
(§4) Following treatment, the pots were placed in a greenhouse and kept under optimum growth conditions for the test plants. The visual grading of the damage to the test plants was carried out after ca. 3 weeks in comparison to untreated controls (herbicidal effect in percent (%): 100% effect=plants have died off, 0% effect=as control plants).
(§5) Tables C1 to C3 below show the effects of selected compounds of the general formula (I) according to table 1 on various crop plants and an application rate corresponding to 320 g/ha or below obtained by the experimental procedure mentioned above in biology section A.

Glycine max (GLXMA) [10] = assay: Pre-emergence effects on crop plants; conditions: crop plant
Source text: as §3, §4, §5

Brassica napus (BRSNW) [11] = assay: Post-emergence effects on crop plants; conditions: application rate 320 g/ha, crop plant Brassica napus (BRSNW)
Source text: (§6) Seeds of mono- and dicotyledonous weed plants and crop plants were sown, in plastic or organic planting pots, in sandy loam, covered with soil and grown in a greenhouse under controlled growth conditions. 2 to 3 weeks after sowing, the test plants were sprayed in the single-leaf stage. The compounds according to the invention, formulated in form of wettable powders (WP) or as emulsifiable concentrates (EC), were sprayed onto the green plant parts as aqueous suspension or emulsion, with the addition of 0.5% of an additive, at an application rate of 600 1 of water/ha (converted). The test plants were placed in the greenhouse for ca. 3 weeks under optimum growth conditions, and then the effect of the preparations was assessed visually in comparison with untreated controls (herbicidal effect in percent (%): 100% effect=plants have died off, 0% effect=as control plants).
(§7) Tables D1 to D3 below show the effects of selected compounds of the general formula (I) according to table 1 on various crop plants and an application rate corresponding to 320 g/ha or below obtained by the experimental procedure mentioned above in biology section B.

Glycine max (GLXMA) [12] = assay: Post-emergence effects on crop plants; conditions: crop plant
Source text: as §6, §7

Zea Mays (ZEAMX) [13] = assay: Post-emergence effects on crop plants; conditions: crop plant
Source text: as §6, §7

[14] = test system: Cyperus esculentus (CYPES); assay: Herbicidal pre-emergence action; conditions: 1280 g/ha, graded after ca. 3 weeks
Method in brief: as §1

[15] = test system: Echinochloa crus-galli (ECHCG); assay: Herbicidal pre-emergence action; conditions: graded after ca. 3 weeks
Method in brief: as §1

[16] = test system: Lolium multiflorum (LOLMU); assay: Herbicidal pre-emergence action; conditions: 1280 g/ha, graded after ca. 3 weeks
Method in brief: as §1

[17] = test system: Polygonum convolvulus (POLCO); assay: Herbicidal pre-emergence action; conditions: graded after ca. 3 weeks
Method in brief: as §1

[18] = test system: Cyperus esculentus (CYPES); assay: Herbicidal post-emergence action; conditions: 1280 g/ha, assessed after ca. 3 weeks
Method in brief: as §2

Setaria viridis (SETVI) [19] = assay: Herbicidal post-emergence action; conditions: 1280 g/ha, assessed after ca. 3 weeks
Method in brief: as §2

Lolium rigidum (LOLRI) = assay: Herbicidal pre-emergence action; conditions: 320 g/ha, graded after ca. 3 weeks
Method in brief: as §1

Setaria viridis (SETVI) [20] = assay: Herbicidal pre-emergence action; conditions: graded after ca. 3 weeks
Method in brief: as §1

Viola tricolor (VIOTR) = assay: Herbicidal pre-emergence action; conditions: 320 g/ha, graded after ca. 3 weeks
Method in brief: as §1

Zea Mays (ZEAMX) [21] = assay: Pre-emergence effects on crop plants; conditions: crop plant
Source text: as §3, §4, §5

Veronica persica (VERPE) = assay: Herbicidal pre-emergence action; conditions: 1280 g/ha, graded after ca. 3 weeks
Method in brief: as §1

[22] = test system: Polygonum convolvulus (POLCO); assay: Herbicidal post-emergence action; conditions: 1280 g/ha, assessed after ca. 3 weeks
Method in brief: as §2

| SMILES | Pre-emergence activity against AVEFA (Avena fatua (AVEFA) [2]; 320 g/ha) [%] | Pre-emergence activity against DIGSA [3] [%] | Post-emergence activity against DIGSA [6] [%] | pre-emergence activity against BRSNW (crop damage) (Brassica napus (BRSNW) [9]) [%] | pre-emergence activity against GLXMA (crop damage) (Glycine max (GLXMA) [10]; 320 g/ha) [%] | post-emergence activity against BRSNW (Brassica napus (BRSNW) [11]) [%] | post-emergence activity against ZEAMX (crop damage) (Zea Mays (ZEAMX) [13]; 320 g/ha) [%] | Pre-emergence activity against ALOMY ([1]; 1280 g/ha) [%] | Pre-emergence activity against AVEFA (Avena fatua (AVEFA) [2]; 1280 g/ha) [%] | Pre-emergence activity against CYPES [14] [%] | Pre-emergence activity against ECHCG ([15]; 1280 g/ha) [%] | Pre-emergence activity against LOLMU [16] [%] | Pre-emergence activity against POLCO ([17]; 1280 g/ha) [%] | Post-emergence activity against ALOMY ([4]; 1280 g/ha) [%] | Post-emergence activity against AVEFA (Avena fatua (AVEFA) [5]; 1280 g/ha) [%] | Post-emergence activity against CYPES [18] [%] | Post-emergence activity against ECHCG ([7]; 1280 g/ha) [%] | Post-emergence activity against LOLMU ([8]; 1280 g/ha) [%] | Post-emergence activity against SETVI (Setaria viridis (SETVI) [19]) [%] | post-emergence activity against GLXMA (crop damage) (Glycine max (GLXMA) [12]; 320 g/ha) [%] | other results |
| --- | --- | --- | --- | --- | --- | --- | --- | --- | --- | --- | --- | --- | --- | --- | --- | --- | --- | --- | --- | --- | --- |
| Cn1ncnc1NC(=O)CC1CCC(=O)N1Cc1cccc(F)c1F (racemic) [Example I-002] | 100 | 80 | 80 | 0 | 0 | 0 | 0 |  |  |  |  |  |  |  |  |  |  |  |  |  | Pre-emergence activity against ALOMY ([1]; 320 g/ha): 100%; Post-emergence activity against ALOMY ([4]; 320 g/ha): 80%; Post-emergence activity against AVEFA (Avena fatua (AVEFA) [5]; 320 g/ha): 80%; Post-emergence activity against ECHCG ([7]; 320 g/ha): 90%; Post-emergence activity against LOLMU ([8]; 320 g/ha): 80%; post-emergence activity against GLXMA (crop damage) (Glycine max (GLXMA) [12]; 80 g/ha): 0%; post-emergence activity against ZEAMX (crop damage) (Zea Mays (ZEAMX) [13]; 80 g/ha): 0% |
| COCC(=O)CC(=O)CNC(=O)CC1CCC(=O)N1Cc1cccc(F)c1F (racemic) [Example I-006] |  |  |  |  |  |  |  | 90 | 100 | 90 | 90 | 90 | 90 | 90 | 100 | 80 | 100 | 80 | 80 |  |  |
| CS(=O)(=O)CCOC(=O)CC1CCC(=O)N1Cc1cccc(F)c1F (racemic) [Example I-009] |  | 90 | 80 | 0 |  | 20 |  | 90 | 100 | 80 | 90 | 80 |  | 80 | 90 |  | 100 | 90 | 80 | 0 | Pre-emergence activity against LOLRI (Lolium rigidum (LOLRI)): 80%; Pre-emergence activity against POLCO ([17]; 320 g/ha): 80%; Pre-emergence activity against SETVI (Setaria viridis (SETVI) [20]; 1280 g/ha): 80%; Pre-emergence activity against VIOTR (Viola tricolor (VIOTR)): 100%; pre-emergence activity against GLXMA (crop damage) (Glycine max (GLXMA) [10]; 80 g/ha): 20% |
| CS(=O)(=O)NC(=O)CC1CCC(=O)N1Cc1cccc(F)c1F (racemic) [Example I-012] |  |  |  |  |  |  |  | 90 | 90 | 80 | 80 | 90 |  | 80 | 90 | 80 | 90 | 90 | 90 |  | Pre-emergence activity against SETVI (Setaria viridis (SETVI) [20]; 1280 g/ha): 90% |
| O=C(O)C1CCCN1C(=O)CC1CCC(=O)N1Cc1cccc(F)c1F (racemic) [Example I-013] |  | 90 | 80 | 0 |  | 0 | 0 | 90 | 100 |  | 90 | 90 | 90 | 80 | 80 |  | 80 |  |  | 0 | Pre-emergence activity against LOLRI (Lolium rigidum (LOLRI)): 80%; Pre-emergence activity against SETVI (Setaria viridis (SETVI) [20]; 1280 g/ha): 90%; Pre-emergence activity against VIOTR (Viola tricolor (VIOTR)): 90%; pre-emergence activity against GLXMA (crop damage) (Glycine max (GLXMA) [10]; 80 g/ha): 0%; pre-emergence activity against ZEAMX (crop damage) (Zea Mays (ZEAMX) [21]; 320 g/ha): 0% |
| CC(C)CNC(=O)CC1CCC(=O)N1Cc1cccc(F)c1F (racemic) [Example I-056] |  |  |  |  |  |  |  | 80 |  |  |  |  |  |  |  | 80 |  |  |  |  | Pre-emergence activity against VERPE (Veronica persica (VERPE)): 100% |
| COC(=O)c1ccccc1NC(=O)CC1CCC(=O)N1Cc1cccc(F)c1F (racemic) [Example I-080] | 80 | 80 |  | 0 | 0 | 0 | 0 |  |  |  |  |  |  |  |  |  |  |  |  | 0 | Pre-emergence activity against SETVI (Setaria viridis (SETVI) [20]; 320 g/ha): 90%; pre-emergence activity against ZEAMX (crop damage) (Zea Mays (ZEAMX) [21]; 320 g/ha): 0% |
| O=C(O)CC1CCC(=O)N1Cc1cc(F)cc(F)c1F (racemic) [Example I-201] | 100 | 90 | 90 |  | 0 |  |  |  |  |  |  |  |  |  |  |  |  |  |  | 0 | Pre-emergence activity against ALOMY ([1]; 320 g/ha): 100%; Pre-emergence activity against ECHCG ([15]; 320 g/ha): 100%; Pre-emergence activity against LOLRI (Lolium rigidum (LOLRI)): 80%; Pre-emergence activity against SETVI (Setaria viridis (SETVI) [20]; 320 g/ha): 100%; Post-emergence activity against ALOMY ([4]; 320 g/ha): 90%; Post-emergence activity against AVEFA (Avena fatua (AVEFA) [5]; 320 g/ha): 100%; Post-emergence activity against ECHCG ([7]; 320 g/ha): 90%; pre-emergence activity against ZEAMX (crop damage) (Zea Mays (ZEAMX) [21]; 80 g/ha): 0%; post-emergence activity against ZEAMX (crop damage) (Zea Mays (ZEAMX) [13]; 80 g/ha): 0% |
| CC[C@H](C)[C@H](NC(=O)CC1CCC(=O)N1Cc1cccc(F)c1F)C(=O)O (single isomer, unassigned) [Example I-005] |  |  |  |  |  |  |  | 90 | 100 |  | 80 | 80 | 80 | 90 | 90 | 90 | 100 | 90 | 90 |  | Post-emergence activity against POLCO [22]: 80% |
| Cn1ncnc1NC(=O)CC1CCC(=O)N1Cc1cccc(F)c1F (single isomer, unassigned) [Example I-075] | 90 |  |  | 0 | 0 | 0 | 0 |  |  |  |  |  |  |  | 100 |  |  |  |  | 0 | pre-emergence activity against ZEAMX (crop damage) (Zea Mays (ZEAMX) [21]; 320 g/ha): 0% |
